Experimental data reported in paper PMC7463460, “Structure and Antiparasitic Activity Relationship of Alkylphosphocholine Analogues against Leishmania donovani” (Microorganisms, 2020).
Values joined by “and” are separate entries in the source; they are usually repeats but may differ in a detail not shown here. Equal entries are not always repeated. Where two headings read alike, the source gives them in different places.

Assays:
[1] = system: L. donovani 275/18 Milt-Sb-resistant promastigotes; assay: Promastigote luciferase assay, Milt-resistant 275/18; type: cell-based, Leishmania donovani; settings: for IC50: Leishmania donovani, read-out: Mean IC50 Value Promastigotes
From the text: (§1) L. donovani cloned strains with different Sb susceptibility backgrounds were derived from isolates obtained from VL patients at the B.P. Koirala Institute of Health Sciences, Dharan, Nepal: MHOM/NP/02/BPK282/0cl4 (Sb sensitive, Sb-S). MHOM/NP/02/BPK087/0cl11 (Sb intermediate, Sb-I) and MHOM/NP/02/BPK275/0cl18 (Sb resistance, Sb-R [13]). In addition, Milt-resistant parasites raised against these three Sb sensitivity backgrounds and the Sb-sensitive strain (MHOM/ET/67:LV82) was also used in studies. Luciferase expressing promastigotes for the LV82 and Nepalese strains were prepared using previously published methods and the integrative construct (a gift from Dr D.F. Smith), designated pGL1313, contained pSSU-int fragments to facilitate integration into the ribosomal RNA locus of Leishmania.
(§2) The anti-leishmanial activity of APC against L. donovani luciferase-expressing promastigotes was determined by adding of the appropriate 100 µL parasite line (10^6 cells/mL) to the wells of a 96-well plate and adding 100 µL medium alone (controls) or 100 µL of APC compound (0.01 µg/mL–6.25 µg/mL, n = 3/treatment). […].
(§3) Luciferin solution (1 µg/mL in 20 µL medium without FCS) was added to the appropriate wells of the 96-well plate at the end of the experiment and the amount of light emitted/well was measured using a luminometer (Biotek Synergy HT, relative light units) using a wavelength/bandwidth of 440/40 nm, or IVIS® imaging (Spectrum Living Image system®, total flux, photons/sec).
(§4) The effect of drug treatment on parasite survival was determined by calculating the mean suppression in the light emitted from the drug-treated experimental sample compared to the mean control value and used to calculate the IC50 using Grafit® software (version 5.0, Erithacus Software, East Grinstead, West Sussex, UK). The effect of drug alone on the viability of uninfected macrophages was determined using the same experimental protocol above, but cell viability was determined using an alamar blue colorimetric assay. At the end of the incubation period, cells’ 10 µL resazurin solution (0.02% w/v) was added to control and drug treated cells and the absorbance of samples was read at 575 and 595 nm. The effect of drug treatment on cell survival, which correlates with the magnitude of dye reduction, was expressed as percentage viability (or alamar blue reduction) and determined using the formula provided in the manufacturer’s protocol % alamar blue reduction=(εoxλ)(Aλ1)−(εoxλ1)(Aλ2)/(εredλ1)(A^′λ2)−(εredλ2)(A^′λ1)x100
(§5) Cross resistance (CRI50) indexes were determined as Cross selectivity indices (CRI)=mean IC50 value for the relevant drug−resistant strain i.e., Sb−I or Sb−R / mean IC50 value drug−sensitive strain Sb−S

[2] = system: L. donovani 087/11 Milt-Sb-intermediate promastigotes; assay: Promastigote luciferase assay, Milt-resistant 087/11; type: cell-based, Leishmania donovani; settings: for IC50: Leishmania donovani, read-out: Mean IC50 Value Promastigotes; for Cross-Resistance Index (CRI50) Promast / Promast: Amast Ratio: strain 087/11, Milt-Sb-intermediate
From the text: as §1, §2, §3, §4, §5

[3] = system: L. donovani 282/4 Milt-Sb-sensitive intracellular amastigotes; assay: Intracellular amastigote assay, Milt-resistant 282/4; type: cell-based, Leishmania donovani; settings: for IC50: Leishmania donovani, read-out: Mean IC50 Value Amastigotes; for Selectivity Index (SI50): strain 282/4, Milt-Sb-sensitive, macrophage CC50 / amastigote IC50
From the text: as §1
In the macrophage studies, the method described in previous studies was used as follows. Briefly, bone-marrow-derived BALB/c macrophages (1–2 × 10^5) in 100 µL complete RPMI 1640 medium were added to the wells of a 96 well plate and left to adhere for 24 h at 37 °C, 5% CO₂/95% air. The medium was removed and 100 µL of the appropriate L. donovani luciferase-expressing promastigotes line (parasite: host cell ratio 1:10, 1:20 or 1:40) was added to each well, the ratio used reflected the infectivity of the strain and ensured that control data gave a bioluminescent signal within the same range. […] The variability in infectivity complicates strain to strain comparisons, but we decided to focus on achieving good infection levels in controls so that the effect of drug treatment could be determined. It is possible that intracellular macrophage parasites could have been at different developmental stages at 24 h post-infection. […] Therefore, we assumed that the effect of compounds on the amastigote stage rather than the promastigotes stage was determined in in vitro macrophage studies.
The plate was incubated for a further 24 h, the medium removed, and each well washed with PBS to eliminate non-internalized parasites, which were monitored microscopically. […]
as §3, §4

[4] = system: L. donovani 282/4 (Sb-sensitive) promastigotes; assay: Promastigote luciferase assay, Sb-sensitive strain 282/4; type: cell-based, Leishmania donovani; settings: strain 282/4, Sb-sensitive; for IC50: Leishmania donovani
From the text: as §1
(§6) The anti-leishmanial activity of APC against L. donovani luciferase-expressing promastigotes was determined by adding of the appropriate 100 µL parasite line (10^6 cells/mL) to the wells of a 96-well plate and adding 100 µL medium alone (controls) or 100 µL of APC compound (0.01 µg/mL–6.25 µg/mL, n = 3/treatment). The plate was incubated for 72 h at 25 °C. In combination assays, the additional compound/compounds, at a final concentration of 0.195 or 0.39 µg/mL, was added to the initial APC being tested.
as §3, §4

[5] = Cytotoxicity against uninfected macrophages (alamar blue); type: cell-based, BALB/c mice; settings: BALB/c, mouse, read-out: Macrophage mean IC50 (CC50) (converted)
Protocol: as §4
In the formula, ελ1 and ελ2 are constants representing the molar extinction coefficient of alamar blue at 575 and 595 nm, respectively, in the oxidized (εox) and reduced (εred) forms. Aλ1, Aλ2 and A’λ1, A’λ2 represent absorbance of test and negative control wells at 575 and 595 nm, respectively. The values of % alamar blue reduction (or % viability) were corrected for background values of negative controls containing medium without cells. Percent viability values were used to calculate the IC50 using Grafit® software (version 5.0).

[6] = system: L. donovani 275/18 (Sb-resistant) promastigotes; assay: Promastigote luciferase assay, Sb-resistant strain 275/18; type: cell-based, Leishmania donovani; settings: for IC50: Leishmania donovani, read-out: Mean IC50 Promastigotes; for Promast: Amast Ratio: strain 275/18, Sb-resistant; for Cross-Resistance Index (CRI50) Promast: strain 275/18, Sb-resistant vs Sb-S
From the text: as §1, §2, §3, §4, §5

[7] = system: L. donovani LV82 promastigotes; assay: Luciferase-expressing promastigote assay, strain LV82; type: cell-based, Leishmania donovani; settings: for Promast: Amast Ratio / IC90: LV82; for IC50 / IC90: Leishmania donovani; for IC50: 72 h
Protocol: as §6, §3, §4

[8] = strain 275/18, Milt-Sb-resistant
[9] = uninfected bone-marrow-derived macrophages

| Structure (SMILES) | IC50 [1] | Promast: Amast Ratio [1, 8] | IC50 [2] | Cross-Resistance Index (CRI50) Promast [2] | Promast: Amast Ratio [2] | IC50 [3] | Selectivity Index (SI50) [3] | IC50 [4] | Promast: Amast Ratio [4] | IC50 at 3 days [5, 9] | IC50 [6] | Promast: Amast Ratio [6] | Cross-Resistance Index (CRI50) Promast [6] | Promast: Amast Ratio [7] | Promastigotes mean IC50 ([7]; LV82, 3 days, 25 °C) [µg/mL] | IC50 ([7]; LV82, 3 days, 25 °C) | IC90 [7] [µg/mL] | fold more active than Milt (APC16) ([7]; promastigotes) [fold] | Cross-Resistance Index (CRI50) Promast [1, 8] | IC50 at 3 days [5] |
| --- | --- | --- | --- | --- | --- | --- | --- | --- | --- | --- | --- | --- | --- | --- | --- | --- | --- | --- | --- | --- |
| CCCCCCCCCCCCOP(=O)([O-])OCC[N+](C)(C)C [APC12, dodecylphosphocholine] | > 125 µg/mL and > 356 µM | >28.09 | 184 µg/mL and 520 µM | > 1.47 | 29.82 | 0.08 µg/mL and 230 nM | 442.25 | 0.55 µg/mL and 1.56 µM | 2.09 | 35.4 µg/mL and 101 µM | 0.49 µg/mL and 1.39 µM | 2.10 | 0.89 | 16.46 | 0.16 ± 0.00 | 0.163 µg/mL and 460 nM | 1.47 | 10 | – | – |
| CCCCCCCCCCCCCCOP(=O)([O-])OCC[N+](C)(C)C [APC14, tetradecylphosphocholine] | > 125 µg/mL and > 329 µM | – | 232 µg/mL and 630 µM | > 1.86 | 23.13 | > 1.73 µg/mL and > 4.56 µM | >23.64 | 0.44 µg/mL and 1.16 µM | 3.64 | 40.9 µg/mL and 108 µM | 0.37 µg/mL and 970 nM | 1.31 | 0.84 | 7.97 | – | 0.2 µg/mL and 530 nM | – | – | 1.00 | – |
| CCCCCCCCCCCCCCCCOP(=O)([O-])OCC[N+](C)(C)C [APC16, hexadecylphosphocholine, reference compound] | > 125 µg/mL and > 307 µM | 2.04 | 242 µg/mL and 560 µM | – | 19.13 | > 1.61 µg/mL and > 3.95 µM | – | 0.84 µg/mL and 2.06 µM | 2.68 | – | 1.26 µg/mL and 3.09 µM | 2.49 | – | 7.00 | – | 0.7 µg/mL and 1.72 µM | 6.3 ± 0.1 | – | – | 5.08 µg/mL and 12.5 µM |
